Laboratory results published in patent publication US20260008757A1, “N-(3-(AMINOMETHYL)-PHENYL)-5-(4-PHENYL)-5-(TRIFLUOROMETHYL)-4,5-DIHYDROISOXAZOL-3-AMINE DERIVATIVES AND SIMILAR COMPOUNDS AS PESTICIDES” (BASF SE, priority 2022, published 2026).

Columns and labels:
Assay type in all cases: in vivo
Anthonomus grandis = assay: Boll weevil (Anthonomus grandis) egg and larval mortality, microtiter plate diet test; details: 120 h, egg and larval mortality after 5 days, read-out: mortality in comparison with untreated controls
Protocol: For evaluating control of boll weevil, the test unit consisted of 96-well-microtiter plates containing an insect diet and 5-10 A. grandis eggs.
The compounds were formulated using a solution containing 75% v/v water and 25% v/v DMSO. Different concentrations of formulated compounds were sprayed onto the insect diet at 5 μl, using a custom-built micro atomizer, at two replications.
After application, microtiter plates were incubated at about 25±1° C. and about 75±5% relative humidity for 5 days. Egg and larval mortality were then visually assessed.

[1] = system: Frankliniella occidentalis; assay: Western Flower Thrips (Frankliniella occidentalis) mortality on treated cotton leaf discs, comparative experiment; details: foliar, 48 h, thrips mortality at 2 DAT, read-out: mortality in comparison with untreated controls
Protocol: The active compounds were formulated by a Tecan liquid handler in 100% cyclohexanone as a 10,000 ppm solution supplied in tubes. The 10,000 ppm solution was serially diluted in 100% cyclohexanone to make interim solutions. These served as stock solutions for which final dilutions were made by the Tecan in 50% acetone:50% water (v/v) into 10 or 20 ml glass vials. A nonionic surfactant (Kinetic®) was included in the solution at a volume of 0.01% (v/v). The vials were then inserted into an automated electrostatic sprayer equipped with an atomizing nozzle for application to plants/insects. Small (˜2″ in height) cotton plants were sprayed with test compounds at concentrations ranging from 300 to 0.01 ppm in acetone/water through the automated VPS. After drying, cotton leaves were removed, and circular leaf discs (˜1 cm diameter) were punched from the treated surface and transferred to clean 20 mL scintillation vials. Ten Western flower thrips (FRANOC) were aspirated into each scintillation vial. The vials with the leaf discs and thrips were kept in an upright incubator at 25° C. and 50% relative humidity with a 14:10 light:dark photoperiod. Each treatment was replicated twice. Thrips mortality was assessed at 2 DAT (days after treatment), counting all thrips both dead and alive.

Myzus persicae = assay: Green Peach Aphid (Myzus persicae), mixed life stages, systemic artificial diet test; details: 72 h, aphid mortality after 3 days, read-out: mortality in comparison with untreated controls
Text: For evaluating control of Green Peach Aphid through systemic means the test unit consisted of 96-well-microtiter plates containing liquid artificial diet under an artificial membrane. The compounds were formulated using a solution containing 75% v/v water and 25% v/v DMSO. Different concentrations of formulated compounds were pipetted into the aphid diet, using a custom-built pipette, at two replications. After application, 5-8 adult aphids were placed on the artificial membrane inside the microtiter plate wells. The aphids were then allowed to suck on the treated aphid diet and incubated at about 23±1° C. and about 50±5% relative humidity for 3 days. Aphid mortality and fecundity was then visually assessed.

Spodoptera eridania = assay: Southern Armyworm (Spodoptera eridania), 2nd instar larvae, on sprayed lima bean plants, comparative experiment; details: 96 h, 4 days after treatment, read-out: mortality in comparison with untreated controls
Protocol: The active compounds were formulated by a Tecan liquid handler in 100% cyclohexanone as a 10,000-ppm solution supplied in tubes. The 10,000-ppm solution was serially diluted in 100% cyclohexanone to make interim solutions. These served as stock solutions for which final dilutions were made by the Tecan in 50% acetone:50% water (v/v) into 10 or 20 ml glass vials. A nonionic surfactant (Kinetic®) was included in the solution at a volume of 0.01% (v/v). The vials were then inserted into an automated electrostatic sprayer equipped with an atomizing nozzle for application to plants/insects. Lima bean plants (variety Sieva) were grown 2 plants to a pot and selected for treatment at the 1st true leaf stage. Test solutions were sprayed onto the foliage by an auto-mated electrostatic plant sprayer equipped with an atomizing spray nozzle. The plants were dried in the sprayer fume hood and then removed from the sprayer. Each pot was placed into perforated plastic bags with a zip closure. Ten to 11 armyworm larvae were placed into the bag and the bags zipped closed. Test plants were maintained in a growth room at about 25° C. and about 20-40% relative humidity for 4 days, avoiding direct exposure to fluorescent light (14:10 light:dark photoperiod) to prevent trapping of heat inside the bags. Mortality and reduced feeding were assessed 4 days after treatment, compared to untreated control plants.

Heliothis virescens = assay: Tobacco Budworm (Heliothis virescens) egg and larval mortality, microtiter plate diet test; details: 120 h, egg and larval mortality after 5 days, read-out: mortality in comparison with untreated controls
Protocol: For evaluating control of Tobacco Budworm, the test unit consisted of 96-well-microtiter plates containing an insect diet and 15-25 H. virescens eggs. The compounds were formulated using a solution containing 75% v/v water and 25% v/v DMSO. Different concentrations of formulated compounds were sprayed onto the insect diet at 10 μl, using a custom-built micro atomizer, at two replications. After application, microtiter plates were incubated at about 28±1° C. and about 80±5% relative humidity for 5 days. Egg and larval mortality was then visually assessed.

O=C(NCc1cc(NC2=NOC(c3cc(Cl)cc(Cl)c3)(C(F)(F)F)C2)ccc1F)C1CC1 (centres unmarked) [I-8]
mortality at 800 ppm (Anthonomus grandis): ≥ 75%
mortality at 100 ppm [1]: 100%
mortality at 800 ppm (Myzus persicae): ≥ 75%
mortality at 1 ppm (Spodoptera eridania): 80%
mortality at 800 ppm (Heliothis virescens; 800 ppm): ≥ 75%
mortality at 2500 ppm (Heliothis virescens; 2500 ppm): ≥ 75%

N#CC1(NC(=O)c2cc(NC3=NOC(c4cc(Cl)cc(Cl)c4)(C(F)(F)F)C3)ccc2F)CC1 (centres unmarked) [I-30 of WO2022/171472, reference compound]
mortality at 100 ppm [1]: 19%
mortality at 1 ppm (Spodoptera eridania): 0%
